In patent publication US8399683B2 (TetraLogic Pharmaceuticals, priority 2008, dated 2013):

Experiments:
cIAP-1 BIR-3 = cIAP-1 BIR-3 (Homo sapiens, UniProt Q13490); assay: Fluorescence polarization binding affinity to cIAP-1 BIR-3 (competition with AbuRPF-K(5-Fam)-NH2); conditions: 5 nM labeled peptide, 40 nM BIR3, 15 min at RT, pH 7.5; reported as ranges; read-out: KD (c-IAP-1 BIR3)
Procedure: (§1) The binding affinities of the compounds are reported as a KD value (μM). Briefly, various concentrations of test peptides were mixed with 5 nM of the fluorescently labeled peptide (i.e., a mutated N-terminal Smac peptide—AbuRPF-K(5-Fam)-NH2) and 40 nM of the respective IAP BIR3 for 15 min at RT in […] of 0.1M Potassium Phosphate buffer, pH 7.5 containing […] bovine g-globulin. Following incubation, the polarization values (mP) were measured on a Victor2V (available from PerkinElmer Life Sciences) using a 485 nm excitation filter and a 520 nm emission filter. The reported KD values are supplied as ranges (A=<0.1 μM, B=0.1 μM to 1 μM, C>1 μM to 10 μM, D=>10 μM).

SK-OV-3 cells = assay: Growth inhibition of ovarian cancer cell line SK-OV-3 (MTT assay, cell survival); assay type: cell-based; conditions: Homo sapiens, drug concentration that results in 50% cell survival, 72 hrs incubation, reported as ranges
Procedure: Compounds of the invention also were tested for their ability to inhibit the growth of an ovarian cancer cell line, SK-OV-3. A known assay previously used for measuring cell growth (as described in Hansen, M. B., Nielsen, S. E., and Berg, K. (1989) J. Immunol. Methods 119, 203-210 and incorporated herein by reference in its entirety) was used. Briefly, SK-OV-3 cells are seeded in 96-well plates in McCoy's medium containing 10% fetal bovine serum albumin (5,000 per well) and incubated overnight at 37° C. The next day, test compounds are added at various concentrations (0.003-10 μM) and the plates are incubated at 37° C. for an additional 72 hrs. This incubation time was considered to be optimal for measuring inhibitory effects of the different compounds tested. 50 microliters of 5 mg/mL MTT reagent is added to each well and the plates are incubated at 37° C. for another three (3) hours. At the end of the three (3) hour incubation period, 50 microliters of DMSO is added to each well to dissolve cells and the optical density (OD) of the wells is measured with a microplate reader (Victor^2 1420, Wallac, Finland) at 535 nm. Cell survival (CS) was calculated using the following equation: CS=(OD treated well/mean OD control wells)×100%.
The CC50 (reported in the following tables), is defined as the drug concentration that results in 50% cell survival (CS), and is derived by calculating the point where the dose-response curve crosses the 50% CS point using GraphPad Prism. The reported CC50 values are supplied as ranges (A=<0.1 μM, B=0.1 μM to 1 μM, C=>1 μM to 10 μM, D=>10 μM).

XIAP BIR-3 = target: T1, XIAP BIR-3 (Homo sapiens, UniProt P98170); assay: Fluorescence polarization binding affinity to XIAP BIR-3 (competition with AbuRPF-K(5-Fam)-NH2); conditions: 5 nM labeled peptide, 40 nM BIR3, 15 min at RT, pH 7.5; reported as ranges
T1 construct: 40 nM of the respective IAP BIR3
Procedure: as §1

T1 sequence (P98170 241-356 limits assumed): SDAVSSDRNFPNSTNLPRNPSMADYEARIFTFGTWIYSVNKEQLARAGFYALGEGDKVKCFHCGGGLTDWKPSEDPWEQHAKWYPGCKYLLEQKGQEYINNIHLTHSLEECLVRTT
Chain of cIAP-1 BIR-3 (Q13490 266-352 limits assumed): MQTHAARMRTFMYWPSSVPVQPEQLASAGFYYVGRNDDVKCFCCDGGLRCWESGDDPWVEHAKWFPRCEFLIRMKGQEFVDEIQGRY

SMILES	Kd (cIAP-1 BIR-3) [nM]	CC50 (SK-OV-3 cells) [nM]	Kd (XIAP BIR-3) [nM]
CN[C@@H](C)C(=O)N[C@H](C(=O)N1CC[C@H]2NC[C@@H](c3c[nH]c4ccccc34)[C@H]21)C1CCCCC1 [Example 1, N-{1S-Cyclohexyl-2-[(3aR,6aR)-6R-(1H-indol-3-yl)-hexahydro-pyrrolo[3,2-b]pyrrol-1-yl]-2-oxo-ethyl}-2S-methylamino-propionamide]	> 10000	1000 to 10000	> 10000
CN[C@@H](C)C(=O)N[C@H](C(=O)N1CC[C@H]2NC[C@H](c3c[nH]c4ccccc34)[C@H]21)C1CCCCC1 [Example 2, N-{1S-Cyclohexyl-2-[(3aR,6aR)-6S-(1H-indol-3-yl)-hexahydro-pyrrolo[3,2-b]pyrrol-1-yl]-2-oxo-ethyl}-2S-methylamino-propionamide]	< 100	100 to 1000	< 100
CN[C@@H](C)C(=O)N[C@H](C(=O)N1CC[C@@H]2[C@H]1[C@H](c1c[nH]c3cc(F)ccc13)CN2C1CCCC1)C(C)(C)C [Example 3, N-{1-[4-Cyclopentyl-6-(6-fluoro-1H-indol-3-yl)-hexahydro-pyrrolo[3,2-b]pyrrole-1-carbonyl]-2,2-dimethyl-propyl}-2-methylamino-propionamide]	1000 to 10000	1000 to 10000	1000 to 10000
CN[C@@H](C)C(=O)N[C@H](C(=O)N1CC[C@@H]2[C@H]1[C@@H](c1c[nH]c3cc(F)ccc13)CN2C1CCCC1)C(C)(C)C [Example 4]	< 100	< 100	< 100
CC[C@H](NC(=O)[C@H](C)NC)C(=O)N1CC[C@@H]2[C@H]1[C@H](c1c[nH]c3cc(F)ccc13)CN2C1CCCC1 [Example 5, N-{1-[4-Cyclopentyl-6-(6-fluoro-1H-indol-3-yl)-hexahydro-pyrrolo[3,2-b]pyrrole-1-carbonyl]-propyl}-2-methylamino-propionamide]	100 to 1000	1000 to 10000	> 10000
CC[C@H](NC(=O)[C@H](C)NC)C(=O)N1CC[C@@H]2[C@H]1[C@@H](c1c[nH]c3cc(F)ccc13)CN2C1CCCC1 [Example 6]	100 to 1000	100 to 1000	100 to 1000
CN[C@@H](C)C(=O)N[C@H](C(=O)N1CC[C@@H]2[C@H]1[C@H](c1c[nH]c3cc(F)ccc13)CN2C1CCCC1)C(C)C [Example 7, N-{1-[4-Cyclopentyl-6-(6-fluoro-1H-indol-3-yl)-hexahydro-pyrrolo[3,2-b]pyrrole-1-carbonyl]-2-methyl-propyl}-2-methylamino-propionamide]	100 to 1000	1000 to 10000	1000 to 10000
CN[C@@H](C)C(=O)N[C@H](C(=O)N1CC[C@@H]2[C@H]1[C@@H](c1c[nH]c3cc(F)ccc13)CN2C1CCCC1)C(C)C [Example 8]	< 100	100 to 1000	100 to 1000
CN[C@@H](C)C(=O)N[C@H](C(=O)N1CC[C@@H]2[C@H]1[C@@H](c1c[nH]c3cc(F)ccc13)CN2C1CCCC1)C1CCCCC1 [Example 9, N-{1-Cyclohexyl-2-[4-cyclopentyl-6-(6-fluoro-1H-indol-3-yl)-hexahydro-pyrrolo[3,2-b]pyrrol-1-yl]-2-oxo-ethyl}-2-methylamino-propionamide]	< 100	< 100	100 to 1000
CN[C@@H](C)C(=O)N[C@@H](CO)C(=O)N1CC[C@@H]2[C@H]1[C@H](c1c[nH]c3cc(F)ccc13)CN2C1CCCC1 [Example 10, N-{2-[4-Cyclopentyl-6-(6-fluoro-1H-indol-3-yl)-hexahydro-pyrrolo[3,2-b]pyrrol-1-yl]-1-hydroxymethyl-2-oxo-ethyl}-2-methylamino-propionamide]	100 to 1000	1000 to 10000	> 10000
CN[C@@H](C)C(=O)N[C@@H](CO)C(=O)N1CC[C@@H]2[C@H]1[C@@H](c1c[nH]c3cc(F)ccc13)CN2C1CCCC1 [Example 11]	< 100	> 10000	100 to 1000
CN[C@@H](C)C(=O)N[C@@H](COC)C(=O)N1CC[C@@H]2[C@H]1[C@H](c1c[nH]c3cc(F)ccc13)CN2C1CCCC1 [Example 12, N-{2-[4-Cyclopentyl-6-(6-fluoro-1H-indol-3-yl)-hexahydro-pyrrolo[3,2-b]pyrrol-1-yl]-1-methoxymethyl-2-oxo-ethyl}-2-methylamino-propionamide]	< 100	> 10000	1000 to 10000
CN[C@@H](C)C(=O)N[C@@H](COC)C(=O)N1CC[C@@H]2[C@H]1[C@@H](c1c[nH]c3cc(F)ccc13)CN2C1CCCC1 [Example 13]	100 to 1000	1000 to 10000	1000 to 10000
CN[C@@H](C)C(=O)N[C@H](C(=O)N1CC[C@@H]2[C@H]1[C@H](c1c[nH]c3cc(F)ccc13)CN2C1CCCC1)[C@@H](C)O [Example 14, N-{1-[4-Cyclopentyl-6-(6-fluoro-1H-indol-3-yl)-hexahydro-pyrrolo[3,2-b]pyrrole-1-carbonyl]-2-hydroxy-propyl}-2-methylamino-propionamide]	100 to 1000	> 10000	> 10000
CN[C@@H](C)C(=O)N[C@H](C(=O)N1CC[C@@H]2[C@H]1[C@@H](c1c[nH]c3cc(F)ccc13)CN2C1CCCC1)[C@@H](C)O [Example 15]	100 to 1000	100 to 1000	100 to 1000
CN[C@@H](C)C(=O)N[C@H](C(=O)N1CC[C@@H]2[C@H]1[C@@H](c1c[nH]c3cc(F)ccc13)CN2C1CCCC1)[C@@H](C)OC [Example 16, N-{1-[4-Cyclopentyl-6-(6-fluoro-1H-indol-3-yl)-hexahydro-pyrrolo-[3,2-b]pyrrole-1-carbonyl]-2-methoxy-propyl}-2-methylamino-propionamide]	< 100	100 to 1000	100 to 1000
CN[C@@H](C)C(=O)N[C@H](C(=O)N1CC[C@@H]2[C@H]1[C@@H](c1c[nH]c3cc(F)ccc13)CN2C)C1CCCCC1 [Example 17, N-{1-Cyclohexyl-2-[6-(6-fluoro-1H-indol-3-yl)-4-methyl-hexahydro-pyrrolo[3,2-b]pyrrol-1-yl]-2-oxo-ethyl}-2-methylamino-propionamide]	< 100	100 to 1000	100 to 1000
CCN1C[C@H](c2c[nH]c3cc(F)ccc23)[C@@H]2[C@H]1CCN2C(=O)[C@@H](NC(=O)[C@H](C)NC)C1CCCCC1 [Example 18, N-{1-Cyclohexyl-2-[4-ethyl-6-(6-fluoro-1H-indol-3-yl)-hexahydro-pyrrolo[3,2-b]pyrrol-1-yl]-2-oxo-ethyl}-2-methylamino-propionamide]	< 100	100 to 1000	100 to 1000
CN[C@@H](C)C(=O)N[C@H](C(=O)N1CC[C@@H]2[C@H]1[C@@H](c1c[nH]c3cc(F)ccc13)CN2C(C)C)C1CCCCC1 [Example 19, N-{1-Cyclohexyl-2-[6-(6-fluoro-1H-indol-3-yl)-4-isopropyl-hexahydro-pyrrolo[3,2-b]pyrrol-1-yl]-2-oxo-ethyl}-2-methylamino-propionamide]	< 100	100 to 1000	1000 to 10000
CN[C@@H](C)C(=O)N[C@H](C(=O)N1CC[C@@H]2[C@H]1[C@@H](c1c[nH]c3cc(F)ccc13)CN2C1CCCCC1)C1CCCCC1 [Example 20, N-{1-Cyclohexyl-2-[4-cyclohexyl-6-(6-fluoro-1H-indol-3-yl)-hexahydro-pyrrolo[3,2-b]pyrrol-1-yl]-2-oxo-ethyl}-2-methylamino-propionamide]	< 100	100 to 1000	< 100
CN[C@@H](C)C(=O)N[C@H](C(=O)N1CC[C@@H]2[C@H]1[C@@H](c1c[nH]c3cc(F)ccc13)CN2C1CCNCC1)C1CCCCC1 [Example 21, N-{1-Cyclohexyl-2-[6-(6-fluoro-1H-indol-3-yl)-4-piperidin-4-yl-hexahydro-pyrrolo[3,2-b]pyrrol-1-yl]-2-oxo-ethyl}-2-methylamino-propionamide]	< 100	> 10000	100 to 1000
